Values after ≈ are worked out from the molar mass of the structure shown. Read-outs that look alike come from different tables or passages of the source.
What was measured:
Format in all cases: cell-based
E. Coli W 13351 = experiment: Antibacterial activity (MIC, agar dilution per CLSI) against E. Coli W 13351; details: for MIC: Escherichia coli
Procedure: (§1) The biological activity of representative compounds according to the invention against various bacterial strains was investigated. In a typical study, overnight grown bacterial cultures were diluted appropriately and inoculated on the agar media containing doubling dilutions of the test compounds. Observation for growth or no growth was performed after 16-20 hours of incubation at 35±2° C. in ambient air. The overall procedure was performed as per Clinical and Laboratory Standards Institute (CLSI) recommendations (Clinical and Laboratory Standards Institute (CLSI), Performance Standards for Antimicrobial Susceptibility Testing, 20th Informational Supplement, M 100-S20, Volume 30, No. 1, 2010).
(§2) The activities are expressed as MICs (mcg/ml).

E. Coli M 50 = experiment: Antibacterial activity (MIC, agar dilution per CLSI) against E. Coli M 50; details: for MIC: Escherichia coli
Procedure: as §1, §2

E. Coli W 13352 = experiment: Antibacterial activity (MIC, agar dilution per CLSI) against E. Coli W 13352; details: for MIC: Escherichia coli
Procedure: as §1, §2

E. Coli H 483 = experiment: Antibacterial activity (MIC, agar dilution per CLSI) against E. Coli H 483; details: for MIC: Escherichia coli, read-out: MIC E. Coli H 483
Procedure: as §1, §2

P. aeruginosa Ps 32 = experiment: Antibacterial activity (MIC, agar dilution per CLSI) against P. aeruginosa Ps 32; details: for MIC: Pseudomonas aeruginosa
Procedure: as §1, §2

P. aeruginosa Ps 21 = experiment: Antibacterial activity (MIC, agar dilution per CLSI) against P. aeruginosa Ps 21; details: for MIC: Pseudomonas aeruginosa
Procedure: as §1, §2

E. Coli W 13353 = experiment: Antibacterial activity (MIC, agar dilution per CLSI) against E. Coli W 13353; details: for MIC: Escherichia coli
Procedure: as §1, §2

[1] = MDR Gram negative strain, Class A ESBL, 16-20 hours at 35±2° C., read-out: MIC E. Coli W 13351
[2] = MDR Gram negative strain, Class C ESBL, 16-20 hours at 35±2° C., read-out: MIC E. Coli M 50
[3] = MDR Gram negative strain, Class A ESBL, 16-20 hours at 35±2° C., read-out: MIC E. Coli W 13352
[4] = MDR Gram negative strain, Class C ESBL, agar dilution, 16-20 hours at 35±2° C.
[5] = PS32, MDR P. aeruginosa strain, agar dilution, 16-20 hours at 35±2° C., read-out: MIC Ps 32
[6] = PS21, MDR P. aeruginosa strain, agar dilution, 16-20 hours at 35±2° C., read-out: MIC Ps 21
[7] = MDR Gram negative strain, Class A ESBL, 16-20 hours at 35±2° C., read-out: MIC E. Coli W 13353
[8] = MDR Gram negative strain, Class A ESBL, 16-20 hours at 35±2° C.
[9] = MDR Gram negative strain, Class C ESBL, 16-20 hours at 35±2° C.
[10] = MDR P. aeruginosa strain, agar dilution, 16-20 hours at 35±2° C.

SMILES	MIC (E. Coli W 13351; [1])	MIC (E. Coli M 50; [2])	MIC (E. Coli W 13352; [3])	MIC (E. Coli H 483; [4])	MIC (P. aeruginosa Ps 32; [5])	MIC (P. aeruginosa Ps 21; [6])	MIC (E. Coli W 13353; [7])	MIC E. Coli W 13351 (E. Coli W 13351; [8])	MIC E. Coli M 50 (E. Coli M 50; [9])	MIC E. Coli W 13352 (E. Coli W 13352; [8])	MIC E. Coli W 13353 (E. Coli W 13353; [8])	also measured
CC(C)(O/N=C(\C(=O)N[C@@H]1C(=O)N2C(C(=O)[O-])=C(C[n+]3ccccc3)CS[C@H]12)c1csc(N)n1)C(=O)O [Ceftazidime, reference compound]	32 µg/mL (≈ 58.5 µM)	> 32 µg/mL	> 32 µg/mL	> 32 µg/mL	> 32 µg/mL	> 32 µg/mL	32 µg/mL (≈ 58.5 µM)					
O=C(NOC[C@H]1CCNC1)[C@@H]1CC[C@@H]2CN1C(=O)N2OS(=O)(=O)O [Example 3, (2S,5R)-7-oxo-N-[(3S)-pyrrolidin-3-ylmethyloxy]-6-(sulfooxy)-1,6-diazabicyclo[3.2.1]octane-2-carboxamide]	16 µg/mL (≈ 43.9 µM)	8 µg/mL (≈ 22 µM)	16 µg/mL (≈ 43.9 µM)	> 32 µg/mL	> 32 µg/mL	> 32 µg/mL	8 µg/mL (≈ 22 µM)					
O=C(NOC[C@@H]1CCCCN1)[C@@H]1CC[C@@H]2CN1C(=O)N2OS(=O)(=O)O [Example 18, (2S,5R)-7-oxo-N-((2S)piperidin-2-ylmethyloxy)-6-(sulfooxy)-1,6-diazabicyclo[3.2.1]octane-2-carboxamide]								1 µg/mL (≈ 2.64 µM)	1 µg/mL (≈ 2.64 µM)	1 µg/mL (≈ 2.64 µM)	0.5 µg/mL (≈ 1.32 µM)	MIC (E. Coli H 483): > 32 µg/mL; MIC (P. aeruginosa Ps 32; PS32, read-out: MIC Ps 32): > 32 µg/mL; MIC (P. aeruginosa Ps 21; PS21, read-out: MIC Ps 21): > 32 µg/mL
C[C@H]1[C@H](NC(=O)/C(=N\OC(C)(C)C(=O)O)c2csc(N)n2)C(=O)N1S(=O)(=O)O [Aztreonam, reference compound]	> 32 µg/mL	> 32 µg/mL	> 32 µg/mL	> 32 µg/mL	8 µg/mL (≈ 18.4 µM)	8 µg/mL (≈ 18.4 µM)	> 32 µg/mL					
O=C(NOC[C@@H]1CCCCN1)[C@@H]1CC[C@@H]2CN1C(=O)N2OS(=O)(=O)O [Example 19, (2S,5R)-7-oxo-N-((2S)piperidin-2-ylmethyloxy)-6-(sulfooxy)-1,6-diazabicyclo[3.2.1]octane-2-carboxamide]								8 µg/mL (≈ 21.1 µM)	8 µg/mL (≈ 21.1 µM)	16 µg/mL (≈ 42.3 µM)	4 µg/mL (≈ 10.6 µM)	MIC E. Coli H 483 (E. Coli H 483; [4]): >32 µg/mL; MIC Ps 32 (P. aeruginosa Ps 32; [10]): >32 µg/mL; MIC Ps 21 (P. aeruginosa Ps 21; [10]): >32 µg/mL
C[C@@H](O)[C@H]1C(=O)N2C(C(=O)O)=C(SCCN=CN)C[C@H]12 [Imipenem, reference compound]	0.25 µg/mL (≈ 0.835 µM)	0.5 µg/mL (≈ 1.67 µM)	0.25 µg/mL (≈ 0.835 µM)	1 µg/mL (≈ 3.34 µM)	> 32 µg/mL	> 32 µg/mL	0.25 µg/mL (≈ 0.835 µM)					
O=C(NOC[C@H]1CCCN1)[C@@H]1CC[C@@H]2CN1C(=O)N2OS(=O)(=O)O [Example 2, (2S,5R)-7-oxo-N-[(2R)-pyrrolidin-2-ylmethyloxy]-6-(sulfooxy)-1,6-diazabicyclo[3.2.1]octane-2-carboxamide]	2 µg/mL (≈ 5.49 µM)	1 µg/mL (≈ 2.74 µM)	2 µg/mL (≈ 5.49 µM)	> 32 µg/mL	> 32 µg/mL	> 32 µg/mL	1 µg/mL (≈ 2.74 µM)					
O=C(NOC1CCNC1)[C@@H]1CC[C@@H]2CN1C(=O)N2OS(=O)(=O)O (stereo partly drawn) [Example 30, (2S,5R)-7-oxo-N-[(3R,S)-pyrrolidin-3-yloxy]-6-(sulfooxy)-1,6-diazabicyclo[3.2.1]octane-2-carboxamide]								8 µg/mL (≈ 22.8 µM)	4 µg/mL (≈ 11.4 µM)	8 µg/mL (≈ 22.8 µM)	4 µg/mL (≈ 11.4 µM)	MIC E. Coli H 483 (E. Coli H 483; [4]): >32 µg/mL; MIC Ps 32 (P. aeruginosa Ps 32; [10]): >32 µg/mL; MIC Ps 21 (P. aeruginosa Ps 21; [10]): >32 µg/mL
CN(C)c1cc(NC(=O)CNC(C)(C)C)c(O)c2c1C[C@H]1C[C@H]3[C@H](N(C)C)C(O)=C(C(N)=O)C(=O)[C@@]3(O)C(O)=C1C2=O [Tigecyclin, Tigecycline, reference compound]												MIC (E. Coli W 13351; read-out: MIC E. Coli W 13351, MDR Gram negative strain, Class A ESBL, 16-20 hours at 35±2° C.): 1 µg/mL (≈ 1.71 µM); MIC (E. Coli M 50; read-out: MIC E. Coli M 50, MDR Gram negative strain, Class C ESBL, 16-20 hours at 35±2° C.): 0.5 µg/mL (≈ 0.854 µM); MIC (E. Coli W 13352; read-out: MIC E. Coli W 13352, MDR Gram negative strain, Class A ESBL, 16-20 hours at 35±2° C.): 0.25 µg/mL (≈ 0.427 µM); MIC (E. Coli H 483): 0.5 µg/mL (≈ 0.854 µM); MIC (P. aeruginosa Ps 32; PS32, read-out: MIC Ps 32): 16 µg/mL (≈ 27.3 µM); MIC (P. aeruginosa Ps 21; PS21, read-out: MIC Ps 21): 16 µg/mL (≈ 27.3 µM); MIC (E. Coli W 13353; read-out: MIC E. Coli W 13353, MDR Gram negative strain, Class A ESBL, 16-20 hours at 35±2° C.): 1 µg/mL (≈ 1.71 µM)
O=C(NOCC1CCCCN1)[C@@H]1CC[C@@H]2CN1C(=O)N2OS(=O)(=O)O (stereo partly drawn) [Example 17, (2S,5R)-7-oxo-N-((2R,S)piperidin-2-ylmethyloxy)-6-(sulfooxy)-1,6-diazabicyclo[3.2.1]octane-2-carboxamide]								1 µg/mL (≈ 2.64 µM)	0.5 µg/mL (≈ 1.32 µM)	1 µg/mL (≈ 2.64 µM)	0.5 µg/mL (≈ 1.32 µM)	MIC E. Coli H 483 (E. Coli H 483; [4]): >32 µg/mL; MIC Ps 32 (P. aeruginosa Ps 32; [10]): >32 µg/mL; MIC Ps 21 (P. aeruginosa Ps 21; [10]): >32 µg/mL
O=C(NOC[C@@H]1CCCN1)[C@@H]1CC[C@@H]2CN1C(=O)N2OS(=O)(=O)O [Example 1, (2S,5R)-7-oxo-N-[(2S)-pyrrolidin-2-ylmethyloxy]-6-(sulfooxy)-1,6-diazabicyclo[3.2.1]octane-2-carboxamide]	1 µg/mL (≈ 2.74 µM)	0.5 µg/mL (≈ 1.37 µM)	1 µg/mL (≈ 2.74 µM)	> 32 µg/mL	> 32 µg/mL	> 32 µg/mL	0.5 µg/mL (≈ 1.37 µM)					
O=C(NOC[C@@H]1CCNC1)[C@@H]1CC[C@@H]2CN1C(=O)N2OS(=O)(=O)O [Example 4, (2S,5R)-7-oxo-N-[(3R)-pyrrolidin-3-ylmethyloxy]-6-(sulfooxy)-1,6-diazabicyclo[3.2.1]octane-2-carboxamide]	8 µg/mL (≈ 22 µM)	8 µg/mL (≈ 22 µM)	8 µg/mL (≈ 22 µM)	> 32 µg/mL	> 32 µg/mL	> 32 µg/mL	8 µg/mL (≈ 22 µM)					
